Experimental data published in patent US20240003914A1 (THE SCRIPPS RESEARCH INSTITUTE, priority 2020, published 2024).

What was measured:
C57BL/6 mice = assay: Whole blood NAD levels after oral treatment; assay type: in vivo, mouse; conditions: 6 mg/kg SR005 or 100 mg/kg NAM, normalized by baseline (FIG. 8)
Excerpt: Blood was collected and NAD detected as described in FIGS. 1A-1C. NAD values were normalized by baseline level for each mouse. Each line represents data for one mouse.

NADases = assay: NAD protection from degradation by NADases in brain homogenate; assay type: biochemical, mouse; conditions: inhibitor added to aliquots of a brain sample after homogenisation; duplicate samples (FIG. 1F)
Description: Brain homogenates are disrupted and clarified by sonication (0.5 second per cycle, 45 cycles, 50% power) followed by centrifugation at 12,000 rpm, RT for 5 minutes. Supernatants are collected and fractionated using Amicon Ultra-2 centrifugal units with a 30 kDa cut-off. Flow-through is collected and NAD is measured using a cycling assay (NAD+/NADH-GloTM (Promega). The NAD+/NADH-GloTM assay is a bioluminescent, homogeneous assay for the detection of total NAD metabolite levels comprising the oxidized and reduced forms of NAD (NAD+ and NADH, respectively). An NAD cycling enzyme is used to convert NAD+ to NADH. In the presence of NADH, the provided reductase enzyme reduces a proluciferin reductase substrate to form luciferin. Luciferin is then quantified using Ultra-Glo recombinant luciferase, and the light signal produced is proportional to the amount of NAD+ and NADH in the sample. Cycling between NAD+ and NADH by the NAD cycling enzyme and reductase increases assay sensitivity and provides selectivity for nonphosphorylated NAD+ and NADH compared to the phosphorylated forms NADP+ and NADPH. Reading is performed between 10 and 50 minutes during the linear increase of the signal in a luminescence reader. NAD values are normalized by total protein concentrations. […] Error bars of duplicate samples are shown. […] Error bars of duplicate samples are shown.

Row | Compound | blood NAD levels after treatment (C57BL/6 mice) | NAD protection from degradation by NADases (NADases)
1 | NC(=O)c1cccnc1 [NAM, nicotinamide] | Increased blood NAD levels | 
2 | O=c1cc(-c2ccc(O)cc2)oc2cc(O)cc(O)c12 [apigenin] |  | absence of protection
